Source: ChEMBL document CHEMBL1136343, “Naringenin derivatives as anti-atherogenic agents” (Bioorg Med Chem Lett, 2003)

What was measured:
Format in all cases: functional, organism-based
Oryctolagus cuniculus [1] = test: Plasma triglyceride level was analyzed after administration of 0.1%, wt/wt diet in high cholesterol-fed rabbits after 0 weeks
Oryctolagus cuniculus [2] = test: Plasma HDL cholesterol level was analyzed after administration of 0.1%, wt/wt diet in high cholesterol-fed rabbits at 0 weeks
Oryctolagus cuniculus [3] = test: Plasma HDL cholesterol level was analyzed after administration of 0.1%, wt/wt diet in high cholesterol-fed rabbits after 8 weeks
Oryctolagus cuniculus [4] = test: Total plasma cholesterol was analyzed after administration of 0.1%, wt/wt diet in high cholesterol-fed rabbits at 0 weeks
Oryctolagus cuniculus [5] = test: Total plasma cholesterol was analyzed after administration of 0.1%, wt/wt diet in high cholesterol-fed rabbits after 8 weeks
Oryctolagus cuniculus [6] = test: Plasma triglyceride level was analyzed after administration of 0.1%, wt/wt diet in high cholesterol-fed rabbits after 8 weeks

Row | Compound | Plasma lipid level (Oryctolagus cuniculus [1]) [mg/dL] | Plasma lipid level (Oryctolagus cuniculus [2]) [mg/dL] | Plasma lipid level (Oryctolagus cuniculus [3]) [mg/dL] | Plasma lipid level (Oryctolagus cuniculus [4]) [mg/dL] | Plasma lipid level (Oryctolagus cuniculus [5]) [mg/dL] | Plasma lipid level (Oryctolagus cuniculus [6]) [mg/dL]
1 | CCCCCCCCCCCCCCCCC(=O)Oc1cc(O)c2c(c1)OC(c1ccc(O)cc1)CC2=O (configuration not stated) | 50 | 34 | 93 | 53 | 1060 | 85
2 | CCCCCCCC/C=C/CCCCCCCC(=O)Oc1cc(O)c2c(c1)OC(c1ccc(O)cc1)CC2=O (configuration not stated) | 51 | 31 | 78 | 51 | 1040 | 105
